Test results from paper PMC5679017 (Journal of medicinal chemistry, 2016).

Columns and labels:
melanocortin receptors = details: cited from earlier work
mice [1] = details: 2 nmol dose; 3, 4, 5, 6, 16 and 24 hours after administration; cited from earlier work
mice [2] = experiment: Cannula placement validation with hPYY, food intake; format: in vivo, mouse; details: 2.5 μg human PYY3-36, validated cannulated mice (saline: 0.42 ±0.07 g)

Compound	binding affinity at the melanocortin receptors (reported) (melanocortin receptors)	food intake after ICV administration (previous study) (mice [1])	food eaten four hours after administration (mice [2])
CC(=O)N[C@@H](Cc1c[nH]cn1)C(=O)N[C@H](Cc1ccccc1)C(=O)N[C@@H](CCCNC(=N)N)C(=O)N[C@@H](Cc1c[nH]c2ccccc12)C(N)=O [Compound 1, Ac-His-DPhe-Arg-Trp-NH2]	high nanomolar to low micromolar	decrease food intake	
hPYY: human PYY3-36 (Bachem) used to verify cannula placement			1.79 ± 0.13 g
